{Amino} = amino group added with ABI Aminolink 2 reagent, reacts with dyes such as Texas Red
Columns and labels:
ET-10AL capture sequence = experiment: Electronically controlled fluorescent DNA/dye (ethidium bromide) detection; format: binding; conditions: capture ET-10AL; peak EB fluorescence after positive bias 0.05 mA, 0.03 Volt-Hours
Protocol: Microcapillary test devices were prepared and hybridized as described in Example 2 and 3. Ethidium bromide (EB) was added to the buffer solution (˜0.05 mM EB final concentration) and the test devices were biased negative to concentrate EB (positively charged) at both the hybridized and un-hybridized microlocations. The test devices were observed by epifluorescece microscopy at 550 nm excitation and 600 nm emission.
The test devices were re-mounted biased positive
constant current at 0.05 mA for 0.03 Volt-Hours, to selectively remove the EB. Fluorescence at the un-hybridized microlocations diminished while the hybridized microlocations retained a very high level of EB fluorescence. The results are given below:
Fluorescent signal was measured using an ICCD imaging
camera system and represent peak fluorescent intensities. The signal to noise ratio would be more than 1000 fold if the entire fluorescent signal area was integrated.

[1] = Conductivity measurements of transport buffers; format: physicochemical
[2] = cited from earlier work
[3] = not told

5′-Amino-CCT GCT CAT GAG TCT CTC (CCTGCTCATGAGTCTCTC; DNA, 5' {Amino}, backbone not given here; further chemistry not fully specified) [ET-11AL]
Normalized Signal (ET-10AL capture sequence): >200

5′-Amino-TGCGAGCTGCAGTCAGACAT (TGCGAGCTGCAGTCAGACAT; DNA, 5' {Amino}, backbone not given here; further chemistry not fully specified) [ET-21A]
Normalized Signal (ET-10AL capture sequence): 1

[Cl-].[Cl-].[Mg+2] [0.1 mM MgCl2, MgCl2]
Average/Std. Deviation (conductivity) [1]: 17.3 +/− 0.87 μS/cm
Measurement 1 (conductivity) [1]: 16.9 μS/cm
Measurement 2 (conductivity) [1]: 16.7 μS/cm
Measurement 3 (conductivity) [1]: 18.3 μS/cm

[Cl-].[Na+] [0.1 mM NaCl, NaCl]
Average/Std. Deviation (conductivity) [1]: 9.43 +/− 0.93 μS/cm
Measurement 1 (conductivity) [1]: 8.80 μS/cm
Measurement 2 (conductivity) [1]: 8.98 μS/cm
Measurement 3 (conductivity) [1]: 10.5 μS/cm

[Cl-].[Cl-].[Mg+2] [1 mM MgCl2, MgCl2]
Average/Std. Deviation (conductivity) [1]: 186 +/− 18.8 μS/cm
Measurement 1 (conductivity) [1]: 174 μS/cm
Measurement 2 (conductivity) [1]: 208 μS/cm
Measurement 3 (conductivity) [1]: 177 μS/cm

[Cl-].[Na+] [1 mM NaCl, NaCl]
Average/Std. Deviation (conductivity) [1]: 112.7 +/− 2.08 μS/cm
Measurement 1 (conductivity) [1]: 112 μS/cm
Measurement 2 (conductivity) [1]: 115 μS/cm
Measurement 3 (conductivity) [1]: 111 μS/cm

Cn1cncc1C[C@H](N)C(=O)O [1(π)-methylhistidine]
pKa (first listed) [2]: 1.64,
pKa (second listed) [2]: 6.46,
pKa (third listed) [2]: 8.61^3

Cn1cnc(C[C@H](N)C(=O)O)c1 [3(τ)-methylhistidine]
pKa (first listed) [2]: 1.70,
pKa (second listed) [2]: 5.87,
pKa (third listed) [2]: 9.16^3

O=C([O-])CCC(=O)[O-].[Na+].[Na+] [5 mM NaSuccinate, NaSuccinate]
Average/Std. Deviation (conductivity) [1]: 1.01 +/− 0.045 mS/cm
Measurement 1 (conductivity) [1]: 1.05 mS/cm
Measurement 2 (conductivity) [1]: 960 μS/cm
Measurement 3 (conductivity) [1]: 1.01 mS/cm

NC(CO)(CO)CO [10 mM TRIS, TRIS]
Average/Std. Deviation (conductivity) [1]: 572 +/− 10.5 μS/cm
Measurement 1 (conductivity) [1]: 572 μS/cm
Measurement 2 (conductivity) [1]: 562 μS/cm
Measurement 3 (conductivity) [1]: 583 μS/cm

O=S(=O)(O)CCN1CCN(CCO)CC1 [25 mM HEPES, HEPES]
Average/Std. Deviation (conductivity) [1]: 9.7 +/− 0.71 μS/cm
Measurement 1 (conductivity) [1]: 9.16 μS/cm
Measurement 2 (conductivity) [1]: 9.44 μS/cm
Measurement 3 (conductivity) [1]: 10.5 μS/cm

N[C@@H](CS)C(=O)O [250 mM Cysteine, Cysteine]
Average/Std. Deviation (conductivity) [1]: 22.7 +/− 5.09 μS/cm
Measurement 1 (conductivity) [1]: 27.4 μS/cm
Measurement 2 (conductivity) [1]: 17.3 μS/cm
Measurement 3 (conductivity) [1]: 23.5 μS/cm

N[C@@H](CS)C(=O)O [Cysteine]
conductance ([1]; 250 mM cysteine solution, pH 4 to 6 range): ~23 μS/cm

N[C@@H](Cc1c[nH]cn1)C(=O)O [Histidine]
pH above the surface of the permeation layer [3]: > 5

O=P(O)(O)O [NaPO4, Sodium Phosphate]
conductance ([1]; 20 mM sodium phosphate): ~2.9 mS/cm

c1c[nH]cn1 [imidazole]
pH above the surface of the permeation layer [3]: > 5

NCCC(=O)O [β-Alanine]
pKa (second listed) [2]: 10.19

NaPO4 [1 mM NaPO4]
Average/Std. Deviation (conductivity) [1]: 128.7 +/− 7.0 μS/cm
Measurement 1 (conductivity) [1]: 122 μS/cm
Measurement 2 (conductivity) [1]: 128 μS/cm
Measurement 3 (conductivity) [1]: 136 μS/cm

NaPO4 [10 mM NaPO4]
Average/Std. Deviation (conductivity) [1]: 1.44 +/− 0.04 mS/cm
Measurement 1 (conductivity) [1]: 1.40 mS/cm
Measurement 2 (conductivity) [1]: 1.44 mS/cm
Measurement 3 (conductivity) [1]: 1.48 mS/cm

NaPO4 [20 mM NaPO4]
Average/Std. Deviation (conductivity) [1]: 2.90 +/− 0.11 mS/cm
Measurement 1 (conductivity) [1]: 2.90 mS/cm
Measurement 2 (conductivity) [1]: 2.79 mS/cm
Measurement 3 (conductivity) [1]: 3.00 mS/cm

— US20070178516A1, “Self-addressable self-assembling microelectronic integrated systems, component devices, mechanisms, methods, and procedures for molecular biological analysis and diagnostics” (NANOGEN, INC., priority 1993, published 2007)
